Assay results from patent publication US11466013B2 (Betta Pharmaceuticals Co., LTD, priority 2018, dated 2022).
pIC50: −log10 of the molar value.

Key:
COLO205 cells = experiment: Cell proliferation assay (COLO205), Cell-titer Glo; type: cell-based; conditions: Homo sapiens, COLO 205, 120 h incubation
Procedure: COLO205 cells were spread into a 96-well plate at 135 μL/well at 2000 cells. After incubating overnight, compound solutions of gradient concentration was prepared, and added 15 μL of DMSO solution of the test compound of each concentration to the cells of each well. The final concentration of the compound was 30000, 10000, 3333.3, 1111.1, 370.4, 123.5, 41.2, 13.7, 4.6, 0 nM (the final concentration of DMSO was 0.5%). 5% CO2 was incubated for 120 h at 37° C. 50 μL of Cell-titer Glo working solution was added to each well, shaked and mixed, and incubated at room temperature for 10 minutes. The multi-functional microplate reader read the luminescence value, and converted the luminescence value reading into inhibition percentage. Inhibition percentage=(maximum value−reading)/(maximum value−minimum value)*100.
The “maximum value” was the DMSO control, the “minimum value” indicates the cell-free control group.
(§1) Graphpad Prism software was used to perform curve fitting and obtain IC50 value.

ERK1 = ERK1 (Homo sapiens, UniProt P27361); experiment: Kinase assay (Caliper, FAM-labeled peptide), ERK1; type: biochemical
Chain of ERK1 (P27361 whole entry): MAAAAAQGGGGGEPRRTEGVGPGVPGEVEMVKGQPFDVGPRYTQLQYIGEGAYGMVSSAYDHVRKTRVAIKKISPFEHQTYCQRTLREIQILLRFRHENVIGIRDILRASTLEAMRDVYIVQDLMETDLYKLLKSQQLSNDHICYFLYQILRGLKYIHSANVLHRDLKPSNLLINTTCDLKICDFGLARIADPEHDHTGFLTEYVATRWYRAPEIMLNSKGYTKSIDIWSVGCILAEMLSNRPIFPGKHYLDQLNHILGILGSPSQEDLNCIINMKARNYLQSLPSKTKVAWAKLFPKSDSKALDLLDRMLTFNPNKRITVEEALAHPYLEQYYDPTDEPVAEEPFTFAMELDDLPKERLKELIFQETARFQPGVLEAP
Procedure: (§2) The compound was diluted to the desired concentration with DMSO, transferred 100 μL to a 96-well plate, and performed a gradient dilution 10 μL of compound from each well was taken and mixed with 90 μL of kinase buffer, and then transferred 5 μL from each well to a 384-well plate. Kinase and FAM-labeled peptide and ATP were added to 1× kinase alkaline buffer to obtain 2.5× enzyme solution and 2.5× peptide solution, 10 μL of 2.5× enzyme solution was added to the 384-well assay plate. After incubating for 10 minutes at room temperature, 10 μL of 2.5× peptide solution was added to the 384-well plate. After reacting for a specific time at […], 25 μL of termination buffer was added to stop reaction. After reading the collected data on Caliper, the data was converted to inhibition percentage. Inhibition percentage=(maximum value−conversion value)/(maximum value−minimum value)*100.
(§3) The “maximum” is the DMSO control, the “minimum” indicates the low control.
as §1

ERK2 = ERK2 (Homo sapiens, UniProt P28482); experiment: Kinase assay (Caliper, FAM-labeled peptide), ERK2; type: biochemical
Chain of ERK2 (P28482 whole entry): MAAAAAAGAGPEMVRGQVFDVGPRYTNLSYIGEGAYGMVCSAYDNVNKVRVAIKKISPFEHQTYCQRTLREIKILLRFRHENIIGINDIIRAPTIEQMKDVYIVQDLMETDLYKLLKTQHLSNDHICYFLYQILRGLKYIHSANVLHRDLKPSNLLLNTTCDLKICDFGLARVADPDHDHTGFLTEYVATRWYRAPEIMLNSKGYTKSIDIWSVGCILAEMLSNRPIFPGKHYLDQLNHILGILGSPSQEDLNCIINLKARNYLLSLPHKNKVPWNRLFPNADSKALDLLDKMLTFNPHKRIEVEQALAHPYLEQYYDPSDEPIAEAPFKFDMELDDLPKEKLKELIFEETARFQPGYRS
Procedure: as §2, §3, §1

pIC50 (COLO205 cells)	IC50 (ERK1)	IC50 (ERK2)	SMILES
8.41	–	–	COCOC[C@H]1Cn2cc(-c3cc(Nc4ccnn4C)ncc3Cl)cc2C(=O)N1Cc1cc(F)ccc1CO [Example 53, (R)-7-(5-chloro-2-((1-methyl-1H-pyrazol-5-yl)amino)pyridin-4-yl)-2-(5-fluoro-2-(hydroxymethyl)benzyl)-3-((methoxymethoxy)methyl)-3,4-dihydropyrrolo[1,2-a]pyrazine-1(2H)-ketone]
7.61	–	–	COC[C@H]1Cn2cc(-c3cc(Nc4c(F)cnn4C)ncc3Cl)cc2C(=O)N1Cc1cc(F)ccc1CO [Example 51, (R)-7-(5-chloro-2-((4-fluoro-1-methyl-1H-pyrazol-5-yl)amino)pyridin-4-yl)-2-(5-fluoro-2-(hydroxymethyl)benzyl)-3-(methoxymethyl)-3,4-dihydropyrrolo[1,2-a]pyrazine-1(2H)-ketone]
6.60	–	–	Cc1cnc(Nc2ccnn2C)nc1-c1c[nH]c(C(=O)NCc2cccc(F)c2)c1 [Example D4, N-(3-fluorobenzyl)-4-(5-methyl-2-((1-methyl-1h-pyrazole-5-yl)amino)pyrimidin-4-yl)-1h-pyrrole-2-formamide, reference compound]
–	1.8 nM	1.8 nM	CC(C)Nc1cc(-c2cnc(C(=O)NCc3ccc(F)cc3CO)s2)c(Cl)cn1 [Example 4, 5-(5-chloro-2-(isopropylamino)pyridin-4-yl)-N-(4-fluoro-2-(hydroxymethyl)benzyl) thiazole-2-formamide]
–	1.1 nM	1.5 nM	COC[C@H]1Cn2cc(-c3cc(Nc4c(C)noc4C)ncc3Cl)cc2C(=O)N1Cc1cc(F)ccc1CO [Example 81, (R)-7-(5-chloro-2-((3,5-dimethyl-isoxazole-4-yl)amino)pyridine-4-yl)-2-(5-fluoro-2-(hydroxymethyl)benzyl)-3-(methoxymethyl)-3,4-dihydropyrrolo[1,2-a] pyrazine-1(2H)-one]
–	0.54 nM	0.46 nM	COC[C@H]1Cn2cc(-c3cc(NC4COC4)ncc3Cl)cc2C(=O)N1Cc1cc(F)ccc1CO [Example 60, (R)-7-(5-chloro-2-(oxacyclobutane-3-ylamino)pyridine-4-yl)-2-(5-fluoro-2-(hydroxymethyl)benzyl)-3-(methoxymethyl)-3,4-dihydropyrrolo[1,2-a] pyrazine-1(2H)-one]
–	1.6 nM	0.35 nM	COC[C@H]1Cn2cc(-c3ccnc(NC(C)C)n3)cc2C(=O)N1Cc1cc(F)ccc1CO [Example 127, (R)-2-(5-fluoro-2-(hydroxymethyl)benzyl)-7-(2-(isopropylamino)pyrimidin-4-yl)-3-(methoxymethyl)-3.4-dihydropyrrolo[1,2-a] pyrazine-1(2H)-one]
–	0.2 nM	0.2 nM	Cc1cnc(NC(C)CO)nc1-c1cc2n(c1)CCN(Cc1cc(F)ccc1CO)C2=O (stereo not shown) [Example 121, 2-(5-fluoro-2-(hydroxymethyl)benzyl)-7-(2-((1-hydroxypropyl-2-yl)amino)-5-methylpyrimidin-4-yl)-3,4-dihydropyrrolo[1,2-a] pyrazine-1(2H)-one]
–	1.2 nM	1.3 nM	COC[C@H]1Cn2cc(-c3cc(NC4CC4)ncc3Cl)cc2C(=O)N1Cc1cc(F)ccc1CO [Example 74, (R)-7-(5-chloro-2-(cyclopropylamino)pyridin-4-yl)-2-(5-fluoro-2-(hydroxymethyl)-benzyl)-3-(methoxymethyl)-3,4-dihydropyrrolo[1,2-a] pyrazine-1(2H)-one]
–	0.36 nM	0.39 nM	COC[C@H]1Cn2cc(-c3cc(NC4COC(C)(C)C4)ncc3Cl)cc2C(=O)N1Cc1cc(F)ccc1CO (stereo partly drawn) [Example 79, (3R)-7-(5-chloro-2-((5,5-dimethyltetrahydrofuran-3-yl)amino)pyridine-4-yl)-2-(5-fluoro-2-(hydroxymethyl)benzyl)-3-(methoxymethyl)-3,4-dihydropyrrolo[1,2-a] pyrazine-1(2H)-one]
–	0.9 nM	0.7 nM	CC(C)Nc1cc(-c2cnc(C(=O)NCc3ccccc3CO)s2)c(Cl)cn1 [Example 3, 5-(5-chloro-2-(isopropylamino)pyridin-4-yl)-N-(2-(hydroxymethyl)benzyl) thiazole-2-formamide]
–	0.9 nM	0.5 nM	COC(=O)C1Cn2cc(-c3cc(NC(C)C)ncc3Cl)cc2C(=O)N1Cc1cc(F)ccc1CO (stereo not shown) [Example 57, Methyl 7-(5-chloro-2-(isopropylamino)pyridin-4-yl)-2-(5-fluoro-2-(hydroxymethyl)benzyl)-1-oxo-1,2,3,4-tetrahydropyrrolo [1,2-a]pyrazine-3-carboxylic acid ethyl ester]
–	1.5 nM	1.2 nM	CC(C)Nc1cc(-c2cnc(C(=O)NCc3cccc(F)c3CO)s2)c(Cl)cn1 [Example 5, 5-(5-chloro-2-(isopropylamino)pyridin-4-yl)-N-(3-fluoro-2-(hydroxymethyl)benzyl) thiazole-2-formamide]
–	0.53 nM	0.44 nM	Cc1cnc(NC(C)C)nc1-c1cc2n(c1)CCN(Cc1cc(F)ccc1CO)C2=O [Example 123, 2-(5-fluoro-2-(hydroxymethyl)benzyl)-7-(2-(isopropylamino)-5-methylpyrimidin-4-yl)-3,4-dihydropyrrolo[1,2-a] pyrazine-1(2H)-one]
–	0.65 nM	0.71 nM	Cc1cnc(NC2COC2)nc1-c1c[nH]c(C(=O)NCc2cc(F)ccc2CO)c1 [Example 122, N-(5-fluoro-2-(hydroxymethyl)benzyl)-4-(5-methyl-2-(oxacyclobutane-3-ylamino)pyrimidin-4-yl)-1h-pyrrole-2-formamide]
–	1.3 nM	1.1 nM	Cc1cnc(Nc2cccc3cnn(C)c23)nc1-c1cc2n(c1)CCN(Cc1cc(F)ccc1CO)C2=O [Example 140, 2-(5-fluoro-2-(hydroxymethyl)benzyl)-7-(5-methyl-2-((1-methyl-1h-indazole-7-yl)amino)pyrimidin-4-yl)-3,4-dihydropylrolo[1,2-a] pyrazine-1(2H)-one]
–	0.97 nM	1.6 nM	COC[C@H]1Cn2cc(-c3cc(NCC(C)(C)O)ncc3Cl)cc2C(=O)N1Cc1cc(F)ccc1CO [Example 65, (R)-7-(5-chloro-2-((2-hydroxy-2-methylpropyl)amino)pyridine-4-yl)-2-(5-fluoro-2-(hydroxymethyl)benzyl)-3-(methoxymethyl)-3,4-dihydropyrrolo[1,2-a] pyrazine-1(2H)-one]
–	0.73 nM	0.68 nM	COC[C@H]1Cn2cc(-c3cc(Nc4cc(C)on4)ncc3Cl)cc2C(=O)N1Cc1cc(F)ccc1CO [Example 80, (R)-7-(5-chloro-2-((5-Methylisoxazole-3-yl)amino)pyridine-4-yl)-2-(5-fluoro-2-(hydroxymethyl)benzyl)-3-(methoxymethyl)-3,4-dihydropyrrolo[1,2-a] pyrazine-1(2H)-one]
–	1.1 nM	1.5 nM	COC[C@H]1Cn2cc(-c3cc(NC4CCCC4)ncc3Cl)cc2C(=O)N1Cc1cc(F)ccc1CO [Example 77, (R)-7-(5-chloro-2-(cyclopentylamino)pyridin-4-yl)-2-(5-fluoro-2-(hydroxymethyl)benzyl)-3-(methoxymethyl)-3,4-dihydropyrrolo[1,2-a] pyrazine-1(2H)-one]
–	1.8 nM	2 nM	COC[C@H]1Cn2cc(-c3cc(NC4CCC4)ncc3Cl)cc2C(=O)N1Cc1cc(F)ccc1CO [Example 70, (R)-7-(5-chloro-2-(cyclobutylamino)pyridin-4-yl)-2-(5-fluoro-2-(hydroxymethyl)benzyl)-3-(methoxymethyl)-3,4-dihydropyrrolo[1,2-a] pyrazine-1(2H)-one]
